# Laboratory results taken from PMC2755569 (The Pediatric Infectious Disease Journal, 2009).
# How the values were obtained:
# [1] = children dosed according to body weight-adjusted dose recommendations; cited from earlier work
# [2] = range = 0.5- to 2.0-fold of target value; cited from earlier work
# [3] = 15 South African children, median dose 352 mg/m^2 equivalent to 14 mg/kg; cited from earlier work
# [4] = human, in vivo
# [5] = Steady-state plasma pharmacokinetics of LPV/RTV plus EFV, protocol P1058
# clinical = conditions: human, in vivo
# [6] = median (range), steady state, LPV/RTV 300 mg/m^2 b.i.d. + EFV 350 mg/m^2 q.d., 15 patients
SMILES,Patients with plasma concentrations below the targeted range [1] [%],Target GM (range) AUC24 [2],Target GM (range) C24 hours [2],Patients with estimated Cmin <1 mg/L [3] [%],AUC lower compared with pediatric and adult patients [4] [%],Cmin lower compared with pediatric and adult patients ([4]; 24 h) [%],"AUC ([5]; human, plasma, oral, 350 mg/m2, AUC24, GM (90% CI), geometric mean (90% CI), EFV 350 mg/m^2 q.d. with LPV/RTV) [ng·h/mL]","concentration at 24 h ([5]; human, plasma, oral, EstC24 hours, GM (90% CI), geometric mean (90% CI), EFV 350 mg/m^2 q.d. with LPV/RTV) [ng/mL]","CL (CL/F) [5, 6]","AUC (clinical; 300 mg/m2, AUC (AUC12), GM (90% CI)) [ng·h/mL]","AUC (clinical; 300 mg/m2, AUCτ (AUC12)) [ng·h/mL]",Target GM (range) AUC12 [2],"concentration at 12 h ([5]; human, plasma, oral, Cmin (C12 h), median (range), LPV/RTV 300 mg/m^2 b.i.d. with EFV, 15 patients) [ng/mL]","Tmax ([5]; median (range), steady state, LPV/RTV 300 mg/m^2 b.i.d. + EFV 350 mg/m^2 q.d., 15 patients, plasma)"
"O=C1Nc2ccc(Cl)cc2[C@@](C#CC2CC2)(C(F)(F)F)O1 [EFV, efavirenz]",64,64 (32–124) mg × h/L,1.8 (0.9 –3.6) mg/L,40,30,60,44100,800,8.5 (2.3–22.9) L/h,,,,,
"Cc1cccc(C)c1OCC(=O)N[C@@H](Cc1ccccc1)[C@@H](O)C[C@H](Cc1ccccc1)NC(=O)[C@H](C(C)C)N1CCCNC1=O [LPV, lopinavir]",,,,,,,,,,91300,100000,80 (40 –160) mg × h/L,,
"CC(C)c1nc(CN(C)C(=O)N[C@H](C(=O)N[C@@H](Cc2ccccc2)C[C@H](O)[C@H](Cc2ccccc2)NC(=O)OCc2cncs2)C(C)C)cs1 [RTV, ritonavir]",,,,,,,,,11.8 (2.0–264.8) L/h,,,,300,3.0 (1.0–8.1) hr
